“Also recorded” adds a separate entry of the source. Like-named read-outs stand apart in the source and are kept apart here.

The subject of test [1] is CWR-R1, CWR-R1 (10E), CWR-R1-MTX20nM cells. The test can be described thus: Colony formation (clonogenicity) assay. The conditions noted are these: parental CWR-R1 and drug-resistant counterparts, 14 days. The class given is cell-based, human. An excerpt:
(A) Comparative GI50 values of Gal, NGGAs, and enzalutamide (ENZ) in drug-naïve-/-resistant prostate cancer cells. (B) Gal and NGGAs induce G1 cell cycle arrest in LNCaP cells. (C) VNPP414 and VNPP433-3β deplete the cell cycle regulator, cyclin D1, and upregulate p21; “+” indicates specific treatments. (D) Gal cause dose-dependent depletion of cyclin D1. (E) Unlike ENZ, Gal and VNPP433-3β inhibit colony formation of drug-naïve/-resistant cells in vitro. 1000 cells/well (CWR-R1, CWR-R1 (10E), CWR-R1-MTX20nM), seeded in 6-well plates were treated with indicated concentrations of compounds for a period of 14 days. Media containing compounds were replaced every 3 days. Colonies were stained with 0.05% crystal violet. (F) Quantification of colony formation units (CFU) in drug-naive/resistant cells. Colony assays were repeated three times and colonies counted in four quadrants of the wells. Results are represented as averages with S.E.M. (* p < 0.05, ** p < 0.001). Note: the numbers in parentheses in Figure 2B,C,E are concentrations of the agents in µM.
0.1 × 10^3 cells per well were seeded in 6-well plates and allowed to attach overnight (16 h), cells were treated with compounds in regular media (RPMI with 10% FBS) at the indicated concentrations and replaced every 3rd day for 14 days or until visible colonies could be counted. Colonies were washed and stained with 0.05% crystal violet for 30 min. Colonies were scanned and quantified (colonies counted in four quadrants of each well) with ImageJ colony counter. Results are represented as the mean of triplicates.

The next test deals with LNCaP cells. As to the kind of experiment: Cell cycle analysis (G1 arrest). The class given is cell-based, human. The following applies: 2.5 µM as effective as Gal at 20 µM. The text has this:
(§1) The new NGGAs (VNPP414 and VNPP433-3β) were identified from in vitro anti-proliferative activities of our in-house compounds assessed in several PC cell lines, including LNCaP, C4-2B, and CWR22Rv1 (22Rv1). […] It was recently reported that treatment of AR-expressing bladder cancer cell lines with enzalutamide induced up-regulation of tumor suppressor, p53, p21 and PTEN, and down-regulation of several oncogenic genes, such as c-myc, cyclin D1, and cyclin E [38]. […] We note that these cell-cycle studies were conducted in LNCaP cells. Inhibition of colony formations (clonogenicity assays) was also assessed by treating the parental CWR-R1 cells and two drug-resistant counterparts with Gal, VNPP433-3β, or ENZ.
(A) Comparative GI50 values of Gal, NGGAs, and enzalutamide (ENZ) in drug-naïve-/-resistant prostate cancer cells. (B) Gal and NGGAs induce G1 cell cycle arrest in LNCaP cells. (C) VNPP414 and VNPP433-3β deplete the cell cycle regulator, cyclin D1, and upregulate p21; “+” indicates specific treatments. (D) Gal cause dose-dependent depletion of cyclin D1. (E) Unlike ENZ, Gal and VNPP433-3β inhibit colony formation of drug-naïve/-resistant cells in vitro. […] (F) Quantification of colony formation units (CFU) in drug-naive/resistant cells. Colony assays were repeated three times and colonies counted in four quadrants of the wells. […]

A further test deals with T1, AR-V7 (Homo sapiens, UniProt P10275).
T1 construct: compound treatments (0–7.5 µM) of CWR22Rv1 cells for 72 h followed by western blot analysis of cells lysates; endogenous in cells; host or cells: CWR22Rv1
T1 sequence (P10275 1-644 isoform P10275-3): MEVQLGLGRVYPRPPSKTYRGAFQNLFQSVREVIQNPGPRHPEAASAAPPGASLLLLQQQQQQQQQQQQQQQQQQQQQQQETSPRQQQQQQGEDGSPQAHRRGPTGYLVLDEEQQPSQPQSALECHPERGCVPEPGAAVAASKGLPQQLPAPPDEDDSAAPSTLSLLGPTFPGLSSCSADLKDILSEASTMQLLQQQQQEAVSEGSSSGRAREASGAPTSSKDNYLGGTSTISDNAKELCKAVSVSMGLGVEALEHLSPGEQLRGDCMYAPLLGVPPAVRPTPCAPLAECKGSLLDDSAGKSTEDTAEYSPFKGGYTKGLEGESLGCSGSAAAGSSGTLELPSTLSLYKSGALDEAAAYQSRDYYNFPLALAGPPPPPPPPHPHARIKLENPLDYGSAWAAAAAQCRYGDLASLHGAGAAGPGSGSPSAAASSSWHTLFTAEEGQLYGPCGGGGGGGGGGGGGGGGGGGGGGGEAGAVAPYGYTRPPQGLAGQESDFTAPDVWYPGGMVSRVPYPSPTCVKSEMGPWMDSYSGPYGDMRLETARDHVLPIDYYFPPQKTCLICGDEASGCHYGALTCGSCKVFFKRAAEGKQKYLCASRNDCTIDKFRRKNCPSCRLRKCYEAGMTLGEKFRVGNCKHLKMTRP
As to the kind of experiment: Protein level decrease by western blot, dose-response in CWR22Rv1 cells. The class given is cell-based. The conditions noted are these: for times more effective (than Gal) in degrading AR-V7: from EC50 values. An excerpt:
(§2) Figure 4 Impact of Gal and NGGAs on AR/AR-V7 and Mnk1/2-eIF4E signaling pathways. (A) Western blot showing the effects of Gal and VNPT55 (55) on Mnk1, Mnk2, and peIF4E. […] (D) Western blot showing dose-dependent effect of Gal on Mnk1, Mnk2, BMI-1, and Snail1 in drug-resistant CWR-R1(10E) cells. […] Note: the numbers in parentheses in Figure 4B are concentrations of the agents in µM.
(§3) We further determined the effects of lead NGGAs on f-AR, AR-V7 and Mnk1 protein levels in CWR22Rv1 cells.
(§4) Cells were lysed with radioimmunoprecipitation assay (RIPA) buffer (Sigma, St. Louis, MO, USA), supplemented with 1X protease inhibitors (Roche, Indianapolis, IN, USA), phosphatase inhibitors (Thermo Scientific, Waltham, MA, USA), 1 mmol/L EDTA and 1 mmol/L PMSF (Sigma).

The target of another test is fAR (Homo sapiens, UniProt P10275). The test is described as above. The class given is cell-based.
Chain of fAR (P10275 whole entry): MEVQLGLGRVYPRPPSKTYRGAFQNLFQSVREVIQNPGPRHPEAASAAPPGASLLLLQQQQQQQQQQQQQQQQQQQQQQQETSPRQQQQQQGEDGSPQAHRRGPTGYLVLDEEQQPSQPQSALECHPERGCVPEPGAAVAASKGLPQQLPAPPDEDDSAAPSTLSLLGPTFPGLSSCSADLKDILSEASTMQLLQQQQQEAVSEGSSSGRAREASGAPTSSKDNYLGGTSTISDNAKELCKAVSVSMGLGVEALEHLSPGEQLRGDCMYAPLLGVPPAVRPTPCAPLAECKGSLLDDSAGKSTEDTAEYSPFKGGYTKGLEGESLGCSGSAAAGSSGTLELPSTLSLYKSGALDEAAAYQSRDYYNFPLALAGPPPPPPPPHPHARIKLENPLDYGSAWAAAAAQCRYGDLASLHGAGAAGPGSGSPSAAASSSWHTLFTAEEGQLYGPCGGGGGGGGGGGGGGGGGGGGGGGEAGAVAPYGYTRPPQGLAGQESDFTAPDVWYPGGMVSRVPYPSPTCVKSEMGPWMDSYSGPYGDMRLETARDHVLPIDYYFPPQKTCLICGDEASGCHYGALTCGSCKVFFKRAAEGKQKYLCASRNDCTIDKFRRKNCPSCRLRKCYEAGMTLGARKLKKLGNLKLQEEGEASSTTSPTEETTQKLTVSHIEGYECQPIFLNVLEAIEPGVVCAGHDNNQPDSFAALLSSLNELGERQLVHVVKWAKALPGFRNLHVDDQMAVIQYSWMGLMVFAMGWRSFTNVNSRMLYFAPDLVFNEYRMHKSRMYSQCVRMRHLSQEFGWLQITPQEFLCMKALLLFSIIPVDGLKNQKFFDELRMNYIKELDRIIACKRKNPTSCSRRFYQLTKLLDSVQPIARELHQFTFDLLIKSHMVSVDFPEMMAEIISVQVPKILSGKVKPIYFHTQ
Text: as §2, §3, §4

In a further test the test system is PC-3 cells. The test can be described thus: Wound-healing cell migration assay. The class given is cell-based, human. The conditions noted are these: PC-3, wound healing, 12 h.
Test [2] concerns drug-naïve and drug-resistant prostate cancer cell lines (six different cell lines). The test can be described thus: MTT cell viability (antiproliferative) assay, GI50. The conditions noted are these: Homo sapiens, 168 h, read-out: GI50 (concentration required to inhibit cell growth by 50%), range over the six cell lines tested, 7 days. The test is classed as cell-based.
Text: as §1
(A) Comparative GI50 values of Gal, NGGAs, and enzalutamide (ENZ) in drug-naïve-/-resistant prostate cancer cells. (B) Gal and NGGAs induce G1 cell cycle arrest in LNCaP cells. (C) VNPP414 and VNPP433-3β deplete the cell cycle regulator, cyclin D1, and upregulate p21; “+” indicates specific treatments. (D) Gal cause dose-dependent depletion of cyclin D1. […] (F) Quantification of colony formation units (CFU) in drug-naive/resistant cells. Colony assays were repeated three times and colonies counted in four quadrants of the wells. […]
MTT assays were performed as described in our previous publications. […] Data was analyzed with GraphPad prism 4 software.

In the case of `C[C@]12CC[C@H](O)CC1=CC[C@@H]1[C@@H]2CC[C@]2(C)C(n3cnc4ccccc43)=CC[C@@H]12` [Galeterone], the “inhibition of colony formation” value in test [1] is on record as “markedly inhibited clonogenic ability”.
The EC50 is the midpoint of the concentration-response curve. For `C[C@]12CC[C@H](OCc3ccncc3)CC1=CCC1C2CC[C@]2(C)C(n3cnc4ccccc43)=CCC12` (stereo partly shown) [VNPP414], the “improved potency over Gal in G1 cell cycle arrest” value in the test with LNCaP cells is recorded as at least 8 fold. The DC50 on AR-V7 (0–7.5 µM, 72 h, western blot, read-out: AR-V7 EC50) was determined as 1.26 ± 0.05 µM. In addition, at AR-V7, the “times more effective (than Gal) in degrading AR-V7” value worked out at 3.9 times. Also, the half-maximal effective concentration (EC50) at fAR (read-out: fAR EC50, 0–7.5 µM, 72 h) was 0.84 ± 0.002 µM. Besides, the “inhibition of cell migration” value in the test with PC-3 cells is on record as “significant inhibition of PC-3 cells migration”.
For `C[C@]12CC[C@H](n3ccnc3)CC1=CCC1C2CC[C@]2(C)C(n3cnc4ccccc43)=CCC12` (stereo partly drawn) [VNPP433-3β], the GI50 in test [2] is 1.12 to 2.54 µM. The “improved potency over Gal in G1 cell cycle arrest” value in the test with LNCaP cells is given as at least 8 fold. In addition, the “inhibition of colony formation” value in test [1] is reported as “significantly more potent than Gal; also recorded: markedly inhibited clonogenic ability”. The “times more effective (than Gal) in degrading AR-V7” value at AR-V7 is given as 3.7 times. Moreover, the DC50 on AR-V7 (read-out: AR-V7 EC50, 0–7.5 µM, 72 h, western blot) worked out at 1.34 ± 0.33 µM. For the same compound, the EC50 on fAR (0–7.5 µM, 72 h, read-out: fAR EC50) turned out to be 0.58 ± 0.002 µM. Further, the “inhibition of cell migration” value in the test with PC-3 cells is recorded as “significant inhibition of PC-3 cells migration”.

These data come from PMC6895912 (Cancers, 2019).
